Experimental data: article PMC7734281, “Functionalized Oxoindolin Hydrazine Carbothioamide Derivatives as Highly Potent Inhibitors of Nucleoside Triphosphate Diphosphohydrolases” (Frontiers in Pharmacology, 2020)
“Also recorded” adds a separate entry of the source.

How the values were obtained:
[1] = target: T1, h-NTPDase8 (Homo sapiens, UniProt Q5MY95); test: h-NTPDase8 inhibition, malachite green assay; type: biochemical; conditions: Lineweaver-Burk plot
T1 construct: made in house; host or cells: COS-7 cells, transient transfection; crude protein extract after sonication
T1 sequence (Q5MY95 1-495): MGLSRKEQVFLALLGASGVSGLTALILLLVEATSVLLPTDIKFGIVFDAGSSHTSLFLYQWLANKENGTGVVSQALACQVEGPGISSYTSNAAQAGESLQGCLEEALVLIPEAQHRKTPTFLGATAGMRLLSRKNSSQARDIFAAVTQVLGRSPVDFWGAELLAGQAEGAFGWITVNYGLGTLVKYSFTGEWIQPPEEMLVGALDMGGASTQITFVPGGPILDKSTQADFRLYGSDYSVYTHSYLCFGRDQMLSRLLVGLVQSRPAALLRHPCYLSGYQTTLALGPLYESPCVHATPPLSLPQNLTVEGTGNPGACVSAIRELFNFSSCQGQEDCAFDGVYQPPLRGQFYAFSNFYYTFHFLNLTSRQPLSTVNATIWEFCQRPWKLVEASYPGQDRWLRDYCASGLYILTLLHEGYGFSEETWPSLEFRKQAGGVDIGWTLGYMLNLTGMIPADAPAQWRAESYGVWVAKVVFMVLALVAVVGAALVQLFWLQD

[2] = tested on: NTPDase3 mRNA; test: NTPDase3 mRNA expression in mice islets by real time qPCR; type: cell-based
Protocol: Freshly isolated mice islets were incubated in KRBB at 37°C with glucose (3 mM). After 45 min, these islets were treated with test compounds in KRBB at 37°C for 3 h, in the presence of stimulatory glucose concentration. Once the incubation was complete, supernatant was removed carefully, and RNA was extracted from these islets.
Total RNA was extracted using TRIzol reagent, according to manufacturer’s instruction. The concentration of isolated RNA was quantified by using Lvis plate method (FLUOstar Omega, BMG Labtech, Ortenberg, Germany). This RNA was then reverse transcribed to cDNA in a total reaction volume of 20 µl. Briefly, a reaction mixture containing RNA (1 µg) and oligo-dT (20 μM, 1 µl) was prepared and volume was adjusted to 12 µl with nuclease free water. The prepared mixture was incubated at 65°C for 5 min and then immediately chilled on ice. Afterward, 8 µl of master mix containing 5X reaction buffer (4 µl), rnase inhibitor (1 µl), dNTPs mix (10 mM, 2 µl) and reverse transcriptase (1 µl) was added to above sample. After gentle pipetting, sample was run under following conditions: 25°C for 5 min, 42°C for 70 min and 70°C for 5 min. Once the cDNA was synthesized, real time quantitative PCR was conducted by using PikoReal 96 Real-Time PCR system (Thermo Scientific, Vantaa, Finland). […] Relative expression was determined by normalization to β actin mRNA by ΔΔCT method.

Row | Mode of inhibition of h-NTPDase8 [1] | SMILES | Effect on expression level of β-actin (housekeeping gene) ([2]; mice islets treated 3 h) | Effect on NTPDase3 gene expression (mRNA) ([2]; mice islets treated 3 h at stimulatory glucose, normalized to β actin, versus control)
1 | competitive | O=C1Nc2ccccc2/C1=N/NC(=S)Nc1ccc(Cl)cc1 [8c, (Z)-N-(4-chlorophenyl)-2-(2-oxoindolin-3-ylidene)hydrazine-1-carbothioamide] | – | –
2 | – | CCNC(=S)N/N=C1\C(=O)Nc2ccccc21 [8m, (Z)-N-ethyl-2-(2-oxoindolin-3-ylidene)hydrazine-1-carbothioamide] | not affected | no significant effect (p > 0.05); also recorded: had not suppressed the gene expression of NTPDase3; also recorded: without affecting the NTPDase3 gene expression
